This is an account of results in patent US5663205A, “Pharmaceutical composition for use in glaucoma treatment” (Senju Pharmaceutical Co. Ltd., priority 1992, dated 1997).

Data set [1] can be described thus: Test Example 7 (1): acute toxicity test in mice. The conditions noted are these: mouse, in vivo, read-out: 50% lethal dose (LD50). On the procedure:
(1) Acute toxicity test of amosulalol hydrochloride with mice:
Investigation was conducted on the acute toxicity of amosulalol hydrochloride in mice through oral administration or intravenous administration.
Amosulalol was given to 7-weeks aged ICR mice by oral administration by use of an oral probe or through a tail vein.

For data set [2], the system named is Normal Intraocular Pressure. Put plainly: Test Example 1 (1): intraocular pressure reducing activity on normal intraocular pressure, pigmented rabbits. Type of data set: in vivo, pigmented rabbits (Dutch belted rabbits). The conditions noted are these: 0.5% ophthalmic solution, 30 min and 1 hour after topical application. Here is the method: Intraocular Pressure Reducing Activity of Amosulalol Hydrochloride on Normal Intraocular Pressure in Pigmented Rabbits Male pigmented rabbits (Dutch belted rabbits) weighing about 2 kg, after having been confirmed to be free from ocular abnormalities; were bred in a breeding room maintained at a temperature of 24± 4° C. and at a relative humidity of 55± 15%, while they were given solid food (Labo RG-RO manufactured by Nihon Nohsan Kogyo K.K.) at a daily rate of 100 g per rabbit and allowed free access to tap water as drinking water. As a test drug, amosulalol hydrochloride was processed into 0.05% (hereinafter, the term "%" is to be understood to designate "w/v %") and 1.0% aqueous solutions which were used in the test, and 0.5% timolol maleate ophthalmic solution [Timoptol (registered trademark): Ban-yu Pharmaceutical Co.] and physiological saline were used as a positive control drug and a control substance, respectively. (1) Measurement of intraocular pressure: Thirty two (32) rabbits were divided into four groups each consisting of 8 rabbits, and 50 μl of test drugs as well as the control drug and physiological saline were applied topically to one eye each of the individual rabbits, with the other being left untreated. Before instillation and 0.5, 1, 2, 3, 4, 6 and 8 hours after topical application,intraocular pressure for both of eyes of each rabbit was measured using a Pneumatonograph (manufactured by Alcon Co. Hereinafter referred to briefly as "PTG"). Shown in FIG. 1 are time-course changes of intraocular pressure taken with the eyes treated by instillation of each of the test drugs, control drug and physiological saline, with time (hour) after instillation taken as abscissa and intraocular pressure (mmHg as ordinate; each value in mean±S.E. (number of cases is 8). The signs "a", "b", "d" and "e" designate physiological saline, 0.05% aqueous solution of amosulalol hydrochloride, 1.0% aqueous solution of amosulalol hydrochloride, and 0.5% ophthalmic solution of timolol maleate, respectively.

In data set [3] the test system is Normal Intraocular Pressure. Put plainly: Test Example 2 (1): intraocular pressure reducing activity on normal intraocular pressure, pigmented rabbits. Format: in vivo, pigmented rabbits (Dutch belted rabbits). The conditions noted are these: 0.5% ophthalmic solution, treated eyes, 30 min and 1 hour after topical application. On the procedure: Intraocular Pressure Reducing Activity of Amosulalol Hydrochloride on Normal Intraocular Pressure in Pigmented Rabbits Forty (40) male pigmented rabbits (Dutch belted rabbits) weighing about 2 kg, after having been confirmed to be free from ocular abnormalities, were bred in a breeding room maintained at a temperature of 24± 4° C. and at a relative humidity of 55± 15%, while they were fed solid food (Labo RG-RO, manufactured by Nihon Nohsan Kogyo K.K.) at a daily rate of 100 g per rabbit and allowed free access to tap water as drinking water. As a test drug, amosulalol hydrochloride was processed into 0.05%, 0.5% and 1.0% aqueous solutions which were used in the test, and 0.5% timolol maleate ophthalmic solution [Timoptol (registered trademark): Ban-yu Pharmaceutical Co.] and physiological saline were used as a positive control drug and a control substance, respectively. (1) Measurement of intraocular pressure: Forty (40) rabbits were divided into five groups. each consisting of 8 heads, and 50 μl of test drug as well as the control drug and physiological saline were applied topically to one eye each of the individual rabbits, with the other being left untreated. Before instillation and 0.5, 1, 2, 3, 4, 6 and 8 hours after topical application respectively, intraocular pressure for both eyes of each rabbit was measured using PTG. Time-course changes of intraocular pressure measurements taken with the eyes treated by instillation of each of the test drugs, control drug and physiological saline, are illustrated in FIGS. 2 (for treated eyes) and 3 (for non-treated eyes), respectively, with time (hour) after instillation taken as abscissa and intraocular pressure (mmHg) as ordinate; each value in mean ± S.E. (the number in each case is 8). The signs "a", "b", "c", "d" and "e" designate physiological saline, 0.05% aqueous solution of amosulalol hydrochloride, 0.5% aqueous solution of amosulalol hydrochloride, 1.0% aqueous solution of amosulalol hydrochloride and 0.5% solution of timolol maleate, respectively.

A further data set relates to choroidal blood flow. To be noted: cited from earlier work.

Each structure is given as a SMILES string. Where a name gives a salt, the structure may show the parent alone. Read-outs that look alike come from different tables or passages of the source.

One may read the LD50 as the dose expected to kill half of the subjects tested. Regarding `COc1ccccc1OCCNCC(O)c1ccc(C)c(S(N)(=O)=O)c1` (stereo not shown) [Amosulalol, 5-[1-hydroxy-2-[2-(2-methoxyphenoxy)ethylamino]ethyl]-2-methylbenzenesulfonamide], the LD50 in data set [1] (iv, intravenous (tail vein), female mice) is 134 mg/kg; in data set [1] (iv, intravenous (tail vein), male mice), 104 mg/kg; in data set [1] (po, female mice) it was 5700 mg/kg; in data set [1] (po, male mice) it was 6500 mg/kg.

For `CC(C)(C)NC[C@H](O)COc1nsnc1N1CCOCC1` [timolol maleate, reference compound], the “drop in intraocular pressure” value in data set [2] and in data set [3] was 2.4 mmHg throughout.

Regarding `CCCC(=O)N1CCCN(c2nc(N)c3cc(OC)c(OC)cc3n2)CC1` [bunazosin hydrochloride], the choroidal blood flow entry in the data set with choroidal blood flow is “can increase choroidal blood flow”.
